The values that follow come from BigSolDB 2.1.

The conditions of the data set: in water.

Broadly, the solubility (mole fraction) is the moles of solute divided by all moles in the saturated solution. Turning to `CCn1cc(C(=O)O)c(=O)c2cc(F)c(N3CCNCC3)cc21`, the solubility (mole fraction) runs as follows: (293.15 K) 2.02e-05; (298.15 K) 2.27e-05; (303.15 K) 2.54e-05; (308.15 K) 2.92e-05; (313.15 K) 3.38e-05; (318.15 K) 3.93e-05. Further, for the setting “323.15 K”, the solubility (mole fraction) was 4.69e-05.
On to `CCn1cc(C(=O)O)c(=O)c2cnc(N3CCNCC3)nc21`, for which the solubility (mole fraction) is 1.85e-05 (293.15 K); 2.04e-05 (298.15 K); 2.3e-05 (303.15 K); 2.63e-05 (308.15 K); 3.02e-05 (313.15 K); 3.4e-05 (318.15 K). This compound also returned a solubility (mole fraction) (323.15 K) of 3.83e-05.
In the case of `CCn1cc(C(=O)O)c(=O)c2cc(F)c(N3CCNC(C)C3)c(F)c21` (stereo unspecified), the solubility (mole fraction) is 3.48e-05 (293.15 K); 3.77e-05 (298.15 K); 4.33e-05 (303.15 K); 4.9e-05 (308.15 K); 5.63e-05 (313.15 K); 6.54e-05 (318.15 K). This compound returned a solubility (mole fraction) (323.15 K) of 7.57e-05.
